Read-outs that look alike come from different tables or passages of the source.

In one data set the test system is A375 melanoma cells. Put plainly: Neutral red uptake (NRU) viability assay, A375. The data set is classed as cell-based, human. The following applies: for IC50: Homo sapiens, A-375, 72 h, mean ± SD of three experiments; for cytotoxic activity on A375 (in words): up to 40 µM. How it is done: (§1) Melanoma human cancer cell line (A375 and MDA-MB-435) were obtained from ATCC. The NIH-3T3 cell line was generously gifted by the ANSM (French National Agency for Medicines and Health Products Safety, Vendargues, France). Cells were cultured in Dulbecco’s Modified Eagle Medium (DMEM, Sigma Aldrich) supplemented with 10% heat-inactivated foetal calf serum (FCS, Gibco), 2 mM glutamax (Gibco), 100 IU/mL penicillin G sodium (Sigma Aldrich), 100 lU/mL streptomycin sulphate (Sigma Aldrich). The cells were allowed to grow at 37 °C in a fully humidified atmosphere containing 5% CO2.
(§2) A viability assay was used to evaluate the cytotoxic activity on A375 and MDA-MB-435 melanoma cells as previously described. According to OCDE/ICCVAM guidance n°129, NRU assay was also used to evaluate the toxicity on the non-cancerous NIH-3T3 cells. Cells were seeded at a final concentration of 2000 cells/well (A375), 3000 cells/well (NIH-3T3) or 7500 cells/well (MDA-MB-435) in 96-well microtiter plates for 24 h. Then, cells were exposed to two negative controls (1% DMSO in culture medium (vehicle) and culture medium alone), or to different compounds freshly dissolved in DMSO, in a range of concentration from 0.01 to 40 µM (six wells per concentration). After 72 h of incubation, cells were stained with new medium containing 50 µg/mL of neutral red (3-amino-7-dimethylamino-2-methylphenazine hydrochloride, Sigma Aldrich) at 37 °C for 2 h. The neutral red medium solution was then removed and the wells were washed with PBS. Finally, 100 µL of solution containing ethanol, acetic acid and water (50/1/49 v/v/v respectively) were added into the wells and the absorbance was measured at 540 nm using the microplate reader 352 Multiscan MS (Labsystems). Cell survival rates were normalised to the absorbance values of untreated control cells. IC50 was obtained using a logistic regression model on Graphpad Prism 5.0 software. Results are given as the mean ± standard deviation (SD) of three independent experiments. Statistical analysis was performed using the Student’s t-test.

In data set [1] the test system is MDA-MB-435 melanoma cells. The experiment in a line: Neutral red uptake (NRU) viability assay, MDA-MB-435. Format: cell-based, human. The following applies: for IC50: Homo sapiens, MDA-MB-435, 72 h, mean ± SD of three experiments; for IC50 / cytotoxic activity on MDA-MB-435 (in words): NRU assay; for cytotoxic activity on MDA-MB-435 (in words): up to 40 µM; for times less active on MDA-MB-435 than on A375 cells: ratio of NRU IC50 values. How it is done: as §1, §2

The test system of data set [2] is NIH-3T3 non-cancerous cells. The experiment in a line: Neutral red uptake (NRU) toxicity assay, NIH-3T3. To be noted: non-cancerous mouse fibroblasts. Format: cell-based. How it is done: as §1, §2
Then, all active compounds on the two melanoma cell lines (IC50 < 40 µM) were assessed on the NIH-3T3 mouse fibroblast cell line, in order to check the toxicity of our compounds on non-cancerous cells. […] As a possible modification of the mechanism of action was hypothesised for these two derivatives (see above), this phenomenon could probably be also correlated with the cytotoxicity observed on the NIH-3T3 cell line.

In data set [3] the test system is MDA-MB-435 melanoma cells. The arrangement: method as in PMID 27871038. The following applies: previously described naphthyl analogues; read-out: IC50 on MDA-MB-435 cell line; cited from earlier work.
The nature of data set [4]: Calculated physicochemical parameters (molsoft cheminformatic tool). The following applies: predicted. How it is done:
Data set of physicochemical properties (cLogP, TPSA and molecular volume, Table 2) were calculated using the online available molsoft cheminformatic tool[23]. IC50 values of the compounds included in the test are presented in Table 1 for the correlations between IC50 and physicochemical properties of compounds modified in position 2 (Figure 2), and in Table S1 (SI) for the correlations between in vitro anti-cancer activity of JMV5038, compound 5 and […] on the NCI cell line panel (Figure 4). Pearson’s correlation coefficient r and level of significant p values were calculated using Origin Pro 2019.

Consider `C[C@@H]1NC(c2c[nH]c3ccccc23)=Nc2nc3ccccn3c2C1=O` [9′, (4S)-4-methyl-2-indol-3-yl-3,4-dihydro-5H-pyrido[1’,2’:1,2]imidazo[4,5-d][1,3]diazepin-5-one], for which the melting point was in the range of 164.5 to 165.5 °C. In the data set with A375 melanoma cells, the IC50 was > 40 µM and the “cytotoxic activity on A375 (in words)” value is “totally inactive”. In data set [1], the IC50 was > 40 µM and the “cytotoxic activity on MDA-MB-435 (in words)” value is “totally inactive”.
For the compound `CCCC[C@@H]1NC(c2ccc(Br)cc2)=Nc2nc3ccccn3c2C1=O` [Compound 13, (4S)-4-butyl-(4-bromophenyl)-3,4-dihydro-5H-pyrido[1’,2’:1,2]imidazo[4,5-d][1,3]diazepin-5-one], the half-maximal inhibitory concentration (IC50) in the data set with A375 melanoma cells was 15.3 ± 1.29 µM; in data set [1], 30.83 ± 0.09 µM; in data set [2] (Mus musculus, NIH3T3, 72 h) it was > 40 µM.
In the case of `CC1NC(c2cccc3ccccc23)=Nc2nc3ccccn3c2C1=O` (stereo not shown) [1-naphthyl derivative], in data set [3], the IC50 is 1400 nM.
In turn, `C[C@@H]1NC(c2ccc(C(=O)c3ccccc3)cc2)=Nc2nc3ccccn3c2C1=O` [Compound 6, (4S)-4-methyl-2-(4-benzoylphenyl)-3,4-dihydro-5H-pyrido[1’,2’:1,2]imidazo[4,5-d][1,3]diazepin-5-one] had a melting point of 132 to 133 °C. Moreover, in the data set with A375 melanoma cells, the IC50 was > 40 µM and the “cytotoxic activity on A375 (in words)” value was “totally inactive”. Besides, in data set [1], the IC50 was > 40 µM and the “cytotoxic activity on MDA-MB-435 (in words)” value was “totally inactive”.
`[N-]=[N+]=NCCCC[C@@H]1NC(c2ccccc2)=Nc2nc3ccccn3c2C1=O` [Compound 18, (4S)-4-(4-azidobutyl)-2-phenyl-3,4-dihydro-5H-pyrido[1’,2’:1,2]imidazo[4,5-d][1,3]diazepin-5-one] came in with a melting point of 116 to 117 °C. Also, in the data set with A375 melanoma cells, the IC50 was > 40 µM and the “cytotoxic activity on A375 (in words)” value is “totally inactive”. In data set [1], the half-inhibitory concentration (IC50) was > 40 µM and the “cytotoxic activity on MDA-MB-435 (in words)” value is “totally inactive”.
`CC(C)C[C@@H]1NC(c2ccc(Br)cc2)=Nc2nc3ccccn3c2C1=O` [Compound 15, (4S)-4-isobutyl-2-(4-bromophenyl)-3,4-dihydro-5H-pyrido[1’,2’:1,2]imidazo[4,5-d][1,3]diazepin-5-one] showed a melting point of 72 to 73 °C. Further, the IC50 in the data set on A375 melanoma cells was > 40 µM. Besides, in data set [1], the IC50 was > 30 µM.
Regarding `C[C@@H]1NC(c2ccc(C#C[Si](C)(C)C)cc2)=Nc2nc3ccccn3c2C1=O`, the melting point fell in the range of 115 to 116 °C.
With `O=C1c2c(nc3ccccn23)N=C(c2ccc(Br)cc2)N2CCC[C@@H]12` [Compound 20, 7–(4-bromophenyl)-9,10,11,11a-tetrahydro-12H-pyrido[2’,1’:2,3]imidazo[4,5-f]pyrrolo[1,2-c][1,3]diazepin-12-one], the IC50 (in the data set on A375 melanoma cells; in data set [1]) was > 40 µM in each case.
The compound `C[C@@H]1NC(c2cn(C(=O)OC(C)(C)C)c3ccccc23)=Nc2nc3ccccn3c2C1=O` [Compound 9, (4S)-4-methyl-2-(1-boc-indol-3-yl)-3,4-dihydro-5H-pyrido[1’,2’:1,2]imidazo[4,5-d][1,3]diazepin-5-one] displayed a melting point of 155 to 157 °C.
The compound `C[C@@H]1NC(c2coc3ccccc23)=Nc2nc3ccccn3c2C1=O` [Compound 7, (4S)-4-methyl-2-benzofuran-3-yl-3,4-dihydro-5H-pyrido[1’,2’:1,2]imidazo[4,5-d][1,3]diazepin-5-one] had a melting point of 164 to 165 °C. In the data set with A375 melanoma cells, this compound came in with an IC50 of 8.47 ± 0.21 µM. In data set [1], the half-maximal inhibitory concentration (IC50) is 25.92 ± 0.17 µM and the “times less active on MDA-MB-435 than on A375 cells” value (shortened to “times less active”) is reported as “around 3”. Further, the IC50 in data set [2] (Mus musculus, NIH3T3, 72 h) was > 40 µM.
Take `C#CCCC(=O)NCCCC[C@@H]1NC(c2ccc(Br)cc2)=Nc2nc3ccccn3c2C1=O` [Compound 22, (4S)-N-{4-[2-(4-bromophenyl)-5-oxo-4,5-dihydro-3H-pyrido[1’,2’:1,2]imidazo[4,5-d][1,3]diazepin-4-yl]butyl}pent-4-ynamide]: the IC50 (in the data set with A375 melanoma cells; in data set [1]) was > 40 µM each time.
With `CC1NC(c2ccc3ccccc3c2)=Nc2nc3ccccn3c2C1=O` (stereo not shown) [2-naphthyl derivative], the half-inhibitory concentration (IC50) in data set [3] is 1400 nM.
For the compound `C#Cc1ccc(C2=Nc3nc4ccccn4c3C(=O)[C@H](C)N2)cc1` [4′, (4S)-4-methyl-2–(4-ethynylphenyl)-3,4-dihydro-5H-pyrido[1’,2’:1,2]imidazo[4,5-d][1,3]diazepin-5-one], the melting point lay within 128 to 129 °C. In addition, inhibition in the data set on A375 melanoma cells was half-maximal at 10.2 ± 0.55 µM (IC50). The compound also had an IC50 in data set [1] of 5.14 ± 0.08 µM. Moreover, in data set [2] (Mus musculus, NIH3T3, 72 h), the IC50 was > 40 µM. The “molecular volume increase compared to JMV5038” value in data set [4] was 2%.
On to `C#CC[C@@H]1NC(c2ccc(Br)cc2)=Nc2nc3ccccn3c2C1=O` [Compound 14, (4S)-4-propargyl-2-(4-bromophenyl)-3,4-dihydro-5H-pyrido[1’,2’:1,2]imidazo[4,5-d][1,3]diazepin-5-one], for which the IC50 is > 40 µM in the data set on A375 melanoma cells and > 30 µM in data set [1].
In the case of `C[C@@H]1NC(c2ccc3ccccc3n2)=Nc2nc3ccccn3c2C1=O` [Compound 11, (4S)-4-methyl-2-quinolin-2-yl-3,4-dihydro-5H-pyrido[1’,2’:1,2]imidazo[4,5-d][1,3]diazepin-5-one], the melting point is 170 to 171 °C. Moreover, the IC50 with A375 melanoma cells is 15.6 ± 0.7 µM. In addition, in data set [1], inhibition was half-maximal at 30.71 ± 0.19 µM (IC50) and the “times less active” value was “around 3”. Moreover, the IC50 in data set [2] (Mus musculus, NIH3T3, 72 h) was > 40 µM.
Take `O=C(O)C[C@@H]1NC(c2ccc(Br)cc2)=Nc2nc3ccccn3c2C1=O` [Compound 21, (4S)-[2-(4-bromophenyl)-5-oxo-4,5-dihydro-3H-pyrido[1’,2’:1,2]imidazo[4,5-d][1,3]diazepin-4-yl]acetic acid]: in the data set with A375 melanoma cells, the IC50 is > 40 µM and the “cytotoxic activity on A375 (in words)” value was “inactive”. In data set [1], the IC50 is > 40 µM and the “cytotoxic activity on MDA-MB-435 (in words)” value is “inactive”.
Compound `C[C@@H]1NC(c2ccc3oc(=O)ccc3c2)=Nc2nc3ccccn3c2C1=O` [Compound 12, (4S)-4-methyl-2-coumarin-6-yl-3,4-dihydro-5H-pyrido[1’,2’:1,2]imidazo[4,5-d][1,3]diazepin-5-one] came in with a melting point of 132.5 to 133.5 °C. In the data set on A375 melanoma cells, the IC50 is > 40 µM and the “cytotoxic activity on A375 (in words)” value was “totally abolished the activity”. Also, in data set [1], the IC50 is > 40 µM and the “cytotoxic activity on MDA-MB-435 (in words)” value is listed as “totally abolished the activity”.
For `[N-]=[N+]=NCCCC[C@H]1NC(c2ccc(Br)cc2)=Nc2nc3ccccn3c2C1=O` [Compound 17, (4R)-4-(4-azidobutyl)-2-(4-bromophenyl)-3,4-dihydro-5H-pyrido[1’,2’:1,2]imidazo[4,5-d][1,3]diazepin-5-one], the IC50 is 8.54 ± 0.22 µM in the data set with A375 melanoma cells; 30.9 ± 0.11 µM in data set [1]; 13.7 ± 0.34 µM in data set [2] (72 h); ~10 µM in data set [2] (Mus musculus, NIH3T3, 72 h).
The compound `C[C@@H]1NC(c2ccc3ncccc3c2)=Nc2nc3ccccn3c2C1=O` [Compound 10, (4S)-4-methyl-2-quinolin-6-yl-3,4-dihydro-5H-pyrido[1’,2’:1,2]imidazo[4,5-d][1,3]diazepin-5-one] registered a melting point of 165 to 166 °C. In the data set with A375 melanoma cells, this compound gave an IC50 of 9.76 ± 0.95 µM. In data set [1], the IC50 was 35.49 ± 0.21 µM and the “times less active” value is reported as “around 3”. The IC50 in data set [2] (Mus musculus, NIH3T3, 72 h) was > 40 µM.

The IC50 is the concentration at which inhibition is half-maximal. For orientation: melting point means the temperature, or range, at which the solid turns liquid.
